Measurements from ChEMBL document CHEMBL4190274, “A Cyclopeptide and a Tetrahydroisoquinoline Alkaloid from Ophiorrhiza nutans” (J Nat Prod, 2017).

Tests used:
Assay type in all cases: functional, cell-based
A549 = test: Cytotoxicity against human A549 cells
HCT-116 = test: Cytotoxicity against human HCT116 cells
HT-29 = test: Cytotoxicity against human HT-29 cells

Measured: IC50

C[N+](C)(C)[C@@H](Cc1ccc(O)cc1)C(=O)N[C@@H]1C(=O)N[C@@H](Cc2ccccc2)C(=O)N[C@H](C(=O)[O-])Cc2ccc(cc2)O[C@@H]1c1ccccc1
> 15 µM: all assays above
